# Experimental data as given in US20250084067A1, “PYRAZOLE-SUBSTITUTED CYCLOPENTANOL ESTER DERIVATIVE AND USE THEREOF” (CHIA TAI TIANQING PHARMACEUTICAL GROUP CO., LTD., priority 2022, published 2025).
# pIC50: −log10 of the molar value. Read-outs that look alike come from different tables or passages of the source.
# Tests used:
# CDK2/CycA2 kinase = CDK2/CycA2 kinase (Homo sapiens (Human), UniProt P24941); assay: Determination of inhibitory activity against CDK2/CycA2 kinase; format: biochemical
# Protocol: The wells were set in duplicate, and a control well was set. […] The resulting mixture was left to react at room temperature for 2 h, and then 5 µL of EDTA was added to terminate the reaction, followed by addition of 5 μL of a detection antibody (manufacturer: PerkinElmer, concentration: 8 nM). The mixture was incubated at room temperature for 1 h.
# CDK2 CycE1 kinase = CDK2 CycE1 kinase (Homo sapiens (Human), UniProt P24941); assay: Determination of inhibitory activity against CDK2 CycE1 kinase; format: biochemical
# Protocol: CDK2 CycE1 kinase solution (concentration: 0.015 ng/μL) was added to assay wells at 6 μL/well, and different compounds dissolved in DMSO were added to the assay wells separately using a nanoliter pipettor, such that the final concentrations of the compounds were 300 nM to 0.07 nM. The wells were set in duplicate, and a control well was set. After incubation of the above system for 30 min, ATP (concentration: 50 μM or 5000 μM) was mixed with ULight-Myelin Basic Protein Peptide substrate (manufacturer: PerkinElmer, concentration: […]) at a ratio of 1:1, and the mixture was added to the assay wells at 4 μL/well. The resulting mixture was left to react at room temperature for 2 h, and then 5 μL of EDTA was added to terminate the reaction, followed by addition of 5 μL of a detection antibody (manufacturer: PerkinElmer, concentration: 8 nM). The mixture was incubated at room temperature for 1 h.
pIC50 (CDK2/CycA2 kinase; 10 μM ATP),pIC50 (CDK2 CycE1 kinase; 10 μM ATP),Structure (SMILES),pIC50 (CDK2/CycA2 kinase; read-out: CDK2/CycA2 10 μM ATP (kinase) IC50),pIC50 (CDK2 CycE1 kinase; read-out: CDK2/CycE1 10 μM ATP (kinase) IC50)
7.30 to 8.00,7.30 to 8.00,CC(C)NC(=O)O[C@@H]1CC[C@H](c2cc(Nc3ccc(N(C)S(C)(=O)=O)cn3)n[nH]2)C1 [Example 2],,
> 8.00,> 8.00,CC(C)NC(=O)O[C@@H]1CC[C@H](c2cc(Nc3ccc(NS(C)(=O)=O)cn3)n[nH]2)C1 [Example 1],,
> 8.00,> 8.00,CC1(NC(=O)O[C@@H]2CC[C@H](c3cc(Nc4ccc5c(c4)CS(=O)(=O)C5)n[nH]3)C2)CC1 [Example 48],,
> 8.00,> 8.00,COc1cc(Nc2cc([C@H]3CC[C@@H](OC(=O)NC(C)C)C3)[nH]n2)ccc1NS(C)(=O)=O [Example 55],,
> 8.00,> 8.00,CC(C)NC(=O)O[C@@H]1CC[C@H](c2cc(Nc3ccc(S(C)(=N)=O)cc3)n[nH]2)C1 (some centres unmarked) [Example 61],,
,,CC(C)NC(=O)O[C@@H]1CC[C@H](c2cc(Nc3ccc4c(c3)CS(=O)(=O)N4)n[nH]2)C1 [Example 43],> 8.00,> 8.00
> 8.00,> 8.00,CC(C)NC(=O)O[C@@H]1CC[C@H](c2cc(Nc3ccc(NS(C)(=O)=O)c(F)c3)n[nH]2)C1 [Example 23],,
7.30 to 8.00,> 8.00,CC(C)NC(=O)O[C@@H]1CC[C@H](c2cc(Nc3ccc4c(c3)S(=O)(=O)CC4)n[nH]2)C1 [Example 75],,
> 8.00,> 8.00,CC(C)NC(=O)O[C@@H]1CC[C@H](c2cc(Nc3ccc(NS(C)(=O)=O)c(Cl)n3)n[nH]2)C1 [Example 30],,
7.30 to 8.00,> 8.00,CC(C)NC(=O)OC1CCC(c2cc(Nc3ncc(NS(C)(=O)=O)cn3)n[nH]2)C1 (centres unmarked) [Example 19],,
> 8.00,> 8.00,CC(C)NC(=O)O[C@@H]1CC[C@H](c2cc(Nc3ccc(N4CCCC4=O)cn3)n[nH]2)C1 [Example 14],,
7.30 to 8.00,> 8.00,CC(C)NC(=O)O[C@@H]1CC[C@H](c2cc(Nc3ccc(-c4cnco4)cn3)n[nH]2)C1 [Example 36],,
> 8.00,> 8.00,[2H]C([2H])([2H])C([2H])(NC(=O)O[C@@H]1CC[C@H](c2cc(Nc3ccc4c(c3)CS(=O)(=O)C4)n[nH]2)C1)C([2H])([2H])[2H] [Example 78],,
> 8.00,> 8.00,CC(C)NC(=O)O[C@@H]1CC[C@H](c2cc(Nc3ccc(C#N)cc3)n[nH]2)C1 [Example 72],,
7.30 to 8.00,7.30 to 8.00,COCCN(C=O)c1ccc(Nc2cc(C3CCC(OC(=O)NC(C)C)C3)[nH]n2)nc1 (centres unmarked) [Example 12],,
7.30 to 8.00,7.30 to 8.00,COCc1ccc(Nc2cc(C3CCC(OC(=O)NC(C)C)C3)[nH]n2)nc1 (centres unmarked) [Example 18],,
